# Reference: patent publication US9956176B2, “Compositions and methods for treating ewing sarcoma” (priority 2014, dated 2018)
# d = 2'-deoxy (DNA); m = 2'-O-methyl
# Experiments:
# FEZF1-AS1 = FEZF1-AS1 expression in A673 cells; type: cell-based, human
# [1] = system: human Acute Lymphoblastic Leukemia (REH cells); assay: REH-Luc leukemia xenograft, tumor burden by Xenogen camera; type: in vivo, mouse
# Source text: (§1) To complete the mouse efficacy and safety studies we injected NOG mice with 6×10^6 luciferase transfected human Acute Lymphoblastic Leukemia (REH cells). This special transgenic type of mouse has deletions in the gene encoding the interleukin 2 receptor γ (IL2Rγ) and has added genes expressing human iL3, GM-CSF and SCF. To prevent rejection of injected human leukemia cells, the NOG mice have a complete lack of B, T, and NK cells, and a deficiency of cytokine signaling. The mice were separated into six groups. Group 1 received only buffer treatment; group 2-untargeted, unloaded HPLN; group 3-untargeted, HPLN/Dox (2 mg Dox/kg); group 4-(targeted) anti-CD-19/HPLN/Dox (2 mg Dox/kg); group 5-Doxil (2 mg Dox/kg); and group 6-(free) doxorubicin (2 mg Dox/kg).
# (§2) Upon injection of the leukemia cells, Xenogen camera images were done once per week and used to assess both tumor cell distribution and quantitative tumor burden. After 10 days post leukemia cell injection, our targeted nanoparticle drug (anti-CD-19/HPLN/Dox) or control particles or drugs, were administered to the mice, in once a week dosages. The amount of drug given was based on the active substance (doxorubicin), not on total nanoparticle mass in each formulation (except for group 2, these mice received an equivalent HPLN dose in unloaded form). […]
# [2] = type: in vivo; settings: once a week IV
# Source text: as §1, §2
# RNA polymerase II = molecular target: T1, RNA polymerase II (Homo sapiens, UniProt P24928); assay: inhibition of FEZF1-AS1 transcription; type: cell-based
# T1 construct: endogenous in cells; host or cells: Ewing sarcoma cells
# Source text: FEZF1-AS1 is located on human chromosome 7q31.32 on the positive strand and overlaps the first two exons of protein-coding gene, FEZF1, which lies on the opposite strand. To characterize this gene in Ewing sarcoma, we performed Northern blot analysis using different biotin-labelled probes that confirmed the 2.6 kb transcript was predominantly expressed in Ewing sarcoma. […] RNA-sequencing of two Ewing sarcoma cell lines, CHLA-9 and CHLA-10, identified multiple isoforms of the transcript, some of which included introns and/or extended beyond exon 7. CHLA-9 and CHLA-10 are Ewing sarcoma cell lines from the same patient. CHLA-9 is from the primary tumor and CHLA-10 is from the metastatic tumor. We validated some of the isoforms by PCR and Sanger sequencing. To confirm the annotation of FEZF1-AS1 as a non-coding RNA, we used the coding potential calculator algorithm that assigned a low score of −1.2 compared to scores of 5 and above for coding genes such as FLI1, and NR0B1. FEZF1-AS1 transcription was inhibited by alpha-amanitin but not by RNA Polymerase III inhibitor, thus confirming that RNA polymerase II transcribes the lncRNA. […] Thus, lncRNA FEZF1-AS1 is a highly expressed gene is Ewing sarcoma.
compound,measurement,setting,value
"5-mG*mU*mG*mU*mG*T*G*T*G*T*C*T*G*C*T*mU*mG*mU*mU*mU-3′ (antisense GUGUGTGTGTCTGCTUGUUU; sugars from the 5' end m5 d10 m5, all phosphorothioate, methylation of C not given here) [FA7]",knockdown levels,"FEZF1-AS1; A673, 48 hours",about 50%
same,FEZF1-AS1 levels reduced to,"FEZF1-AS1; A673, nucleofection, 24 hours",80%
COc1cccc2c1C(=O)c1c(O)c3c(c(O)c1C2=O)C[C@@](O)(C(=O)CO)C[C@@H]3O[C@H]1C[C@H](N)[C@H](O)[C@H](C)O1 [doxorubicin],tumor growth / tumor reduction,"[1]; 2 mg Dox/kg once a week from day 10, IV, FIG. 4",significant tumor reduction
same,tumor size and burden,"[1]; 2 mg Dox/kg, day 35, FIG. 8",markedly less
same,"tolerability, acute toxic reactions",[2],lose weight and appeared sickly
alpha-amanitin,FEZF1-AS1 transcription,RNA polymerase II,inhibited
